Here are results for 56 compounds from patent publication US20040186081A1, “Naaladase inhibitors for treating opioid tolerance” (Guilford Pharmaceuticals Inc., priority 2003, published 2004).

Bounds are passed on as bounds.

Chain of NAALADase (Q04609 whole entry): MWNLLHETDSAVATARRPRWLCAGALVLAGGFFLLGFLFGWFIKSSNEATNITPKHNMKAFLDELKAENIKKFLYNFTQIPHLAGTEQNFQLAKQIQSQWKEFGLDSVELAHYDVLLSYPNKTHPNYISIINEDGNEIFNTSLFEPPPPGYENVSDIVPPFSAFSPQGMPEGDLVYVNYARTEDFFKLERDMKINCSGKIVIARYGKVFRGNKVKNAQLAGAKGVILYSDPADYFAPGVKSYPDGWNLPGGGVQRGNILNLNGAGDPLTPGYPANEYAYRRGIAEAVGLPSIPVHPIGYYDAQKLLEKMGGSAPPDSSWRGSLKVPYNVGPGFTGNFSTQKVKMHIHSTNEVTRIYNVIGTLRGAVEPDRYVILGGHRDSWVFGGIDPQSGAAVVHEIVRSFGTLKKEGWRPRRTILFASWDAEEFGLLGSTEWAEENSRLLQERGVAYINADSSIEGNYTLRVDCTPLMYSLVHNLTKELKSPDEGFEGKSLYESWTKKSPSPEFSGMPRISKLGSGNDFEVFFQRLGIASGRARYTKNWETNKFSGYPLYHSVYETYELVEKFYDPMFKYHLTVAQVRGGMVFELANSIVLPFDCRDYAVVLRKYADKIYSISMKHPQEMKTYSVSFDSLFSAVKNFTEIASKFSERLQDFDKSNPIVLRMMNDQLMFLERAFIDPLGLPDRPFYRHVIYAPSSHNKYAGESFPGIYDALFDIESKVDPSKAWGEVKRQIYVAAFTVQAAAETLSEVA

The first assay concerns the target NAALADase (Homo sapiens, UniProt Q04609). Put plainly: In vitro inhibition of NAALADase activity. The class given is biochemical.
Conditions: not given
Take `O=C(O)c1ccc(C(=O)O)c(S(=O)(=O)c2cc(C(=O)O)ccc2C(=O)O)c1` [2-[(2,5-dicarboxyphenyl)sulfonyl]-1,4-benzenedicarboxylic acid]: the affinity, expressed as Ki, was 1870 nM.

Still in this assay, the particulars now being: read-out: IC50.
Take `O=C(O)C(CCCS)Cc1ccccc1Cl` (stereo not drawn) [2-chloro-alpha-(3-mercaptopropyl)-benzenepropanoic acid]: the IC50 came to 1350 nM.
`CC(C)C(SCCCC(Cc1cccc(C(=O)O)c1)C(=O)O)C(=O)NO` (centres unmarked) [3-[2-Carboxy-5-(1-hydroxycarbamoyl-2-methyl-propylsulfanyl)-pentyl]-benzoic acid]: the IC50 is 2800 nM.
Same read-out and setting: next, `O=C(CSCCCC(Cc1cccc(-c2ccccc2)c1)C(=O)O)NO` (centres unmarked) [2-Biphenyl-3-ylmethyl-5-hydroxy-carbamoylmethylsulfanyl-pentanoic acid]: 4210 nM; `O=C(O)c1cccc(SC(CCCS)C(=O)O)c1` (centres unmarked) [3-[1-carboxy-4-mercaptobutyl)thio]-benzoic acid]: 24 nM; `O=C(O)c1ccc(CC(CCCS)C(=O)O)cc1` (stereo not drawn) [4-carboxy-alpha-(3-mercaptopropyl)-benzenepropanoic acid]: 59 nM.
On the same count and under the same terms, next, `O=C(O)c1cc(CC(CCCS)C(=O)O)cc(Oc2ccccc2)c1` (stereo not drawn) [3-carboxy-alpha-(3-mercaptopropyl)-5-phenoxy-benzenepropanoic acid]: 5 nM.
Still for that read-out and setting: next, `O=C(CSCCCC(Cc1cccc(C(=O)O)c1)C(=O)O)NO` (centres unmarked) [3-(2-Carboxy-5-hydroxycarbamoylmethyl-sulfanylpentyl)-benzoic acid]: 384 nM.
On to `O=C(O)c1cccc(CCS)c1` [3-(2-mercaptoethyl)-benzoic acid], for which the concentration for half-maximal inhibition (IC50) was determined as 6050 nM.
Still for that read-out and setting: next, `CC(C)(C)CCOc1cccc(CCS)c1C(=O)O` [2-(3,3-dimethylbutoxy)-6-(2-mercaptoethyl)-benzoic acid]: 2580 nM; `O=C(CC(Cc1cccc(C(=O)O)c1)C(=O)O)NO` (centres unmarked) [3-(2-Carboxy-3-hydroxycarbamoyl-propyl)-benzoic acid]: 693 nM; `COc1ccc(C(=O)O)cc1CC(CCCS)C(=O)O` (stereo not drawn) [5-carboxy-alpha-(3-mercaptopropyl)-2-methoxy-benzenepropanoic acid]: 26 nM.
With `O=C(O)c1cc(CS)ccc1OCCc1ccccc1` [5-(mercaptomethyl)-2-(2-phenylethoxy)-benzoic acid], the 50% inhibitory concentration (IC50) stood at 188 nM.
The same measure, in the same setting: next, `O=C(COc1cccc(-c2cccc(C(=O)O)c2)c1C(=O)O)NO` [3-Hydroxycarbamoylmethoxy-biphenyl-2,3′-dicarboxylic acid]: 27600 nM.
On to `CS(=O)(=O)c1ccc(CC(CCCS)C(=O)O)cc1` (stereo not drawn) [alpha-(3-mercaptopropyl)-4-(methylsulfonyl)-benzenepropanoic acid], for which the IC50 worked out at 211 nM.
Take `O=C(COc1ccccc1C(=O)O)NO` [2-Hydroxycarbamoylmethoxy-benzoic acid]: the IC50 is no less than 100000 nM.
Still for that read-out and setting: next, `CCC(SCCC(Cc1cccc(C(=O)O)c1)C(=O)O)C(=O)NO` (centres unmarked) [3-[2-Carboxy-4-(1-hydroxycarbamoyl-propylsulfanyl)-butyl]-benzoic acid]: 19000 nM.
The same measure, in the same setting: next, `O=C(O)Cc1ccc(OC(CCCS)C(=O)O)cc1` (centres unmarked) [4-(1-carboxy-4-mercaptobutoxy)-benzeneacetic acid]: 82 nM; `O=C(O)c1ccccc1CC(CCCS)C(=O)O` (stereo not drawn) [2-carboxy-alpha-(3-mercaptopropyl)-benzenepropanoic acid]: 1700 nM.
In the case of `O=C(O)c1ccccc1Oc1ccc(CC(CCCS)C(=O)O)cc1` (stereo not drawn) [4-(2-carboxyphenoxy)-alpha-(3-mercaptopropyl)-benzenepropanoic acid], the half-inhibitory concentration (IC50) was found to be 3590 nM.
On the same count and under the same terms, next, `COc1cc(C(=O)O)ccc1COc1cccc(CCS)c1C(=O)O` [2-[(4-carboxy-2-methoxyphenyl)methoxy]-6-(2-mercaptoethyl)-benzoic acid]: 7 nM; `O=C(CCOc1cccc(-c2cccc(C(=O)O)c2)c1C(=O)O)NO` [3-(2-1-Hydroxycarbamoyl-ethoxy)-biphenyl-2,3′-dicarboxylic acid]: 14900 nM.
Same read-out and setting: next, `O=C(O)c1cccc(COc2ccc(CCS)c(C(=O)O)c2)c1` [5-[(3-carboxyphenyl)methoxy]-2-(2-mercaptoethyl)-benzoic acid]: 84.5 nM; `O=C(CCC(Cc1cccc(C(=O)O)c1)C(=O)O)NO` (centres unmarked) [3-(2-Carboxy-4-hydroxycarbamoyl-butyl)-benzoic acid]: 47.8 nM; `CC(C)(C)c1cc(CC(CCC(=O)NO)C(=O)O)cc(C(=O)O)c1` (centres unmarked) [3-tert-Butyl-5-(2-carboxy-4-hydroxycarbamoyl-butyl)-benzoic acid]: 0.2 nM.
Same read-out and setting: next, `O=C(O)Cc1ccc(CC(CCCS)C(=O)O)cc1` (stereo not drawn) [4-(carboxymethyl)-alpha-(3-mercaptopropyl)-benzenepropanoic acid]: 809 nM; `O=C(CSCCCC(Cc1cccc(C(=O)O)c1)C(=O)O)NO` (centres unmarked) [3-(2-Carboxy-5-hydroxycarbamoylmethyl-sulfanyl-pentyl)-benzoic acid]: 394 nM.
With `O=C(O)c1ccc(COc2cccc(CCS)c2C(=O)O)c(Br)c1` [2-[(2-bromo-4-carboxyphenyl)methoxy]-6-(2-mercaptoethyl)-benzoic acid], the IC50 stood at 2.65 nM.
The same measure, in the same setting: next, `O=C(O)c1ccccc1Oc1cccc(CC(CCCS)C(=O)O)c1` (stereo not drawn) [3-(2-carboxyphenoxy)-alpha-(3-mercaptopropyl)-benzenepropanoic acid]: 49 nM; `O=C(O)c1c(CCS)cccc1OCc1ccccc1` [2-(2-mercaptoethyl)-6-(phenylmethoxy)-benzoic acid]: 11.5 nM.
Same read-out and setting: next, `O=C(O)c1cccc(CC(CCCS)C(=O)O)c1` (single isomer, unassigned; (+)) [(+)-3-carboxy-alpha-(3-mercaptopropyl)-benzenepropanoic acid]: 7 nM; `O=C(O)c1ccc(Br)c(CS)c1` [4-bromo-3-(mercaptomethyl)-benzoic acid]: 3200 nM; `O=C(O)c1ccc(F)c(OC(CCCS)C(=O)O)c1` (centres unmarked) [3-(1-carboxy-4-mercaptobutoxy)-4-fluoro-benzoic acid]: 400 nM.
On the same count and under the same terms, next, `O=C(O)C(CCCS)Cc1cccc(Oc2ccccc2)c1` (stereo not drawn) [alpha-(3-mercaptopropyl)-3-phenoxy-benzenepropanoic acid]: 308 nM; `O=C(O)c1c(CCS)cccc1OCCc1ccccc1` [2-(2-mercaptoethyl)-6-(2-phenylethoxy)-benzoic acid]: 266 nM; `O=C(O)C(CCCS)Sc1ccccc1` (centres unmarked) [5-mercapto-2-(phenylthio)-pentanoic acid]: 297 nM.
With `O=C(NO)c1ccc(O)c(C(=O)O)c1` [6,N-Dihydroxy-isophthalamic acid], the half-inhibitory concentration (IC50) is no less than 100000 nM.
The same measure, in the same setting: next, `O=C(O)C(CCCS)Cc1cccc(-c2ccccc2)c1` (stereo not drawn) [alpha-(3-mercaptopropyl)-3-phenyl-benzenepropanoic acid]: 181 nM.
`O=C(O)COc1cccc(CCS)c1C(=O)O` [2-(carboxymethoxy)-6-(2-mercaptoethyl)-benzoic acid]: the IC50 was 215 nM.
Same read-out and setting: next, `O=C(O)c1ccc(COc2cccc(CCS)c2C(=O)O)cc1` [2-[(4-carboxyphenyl)methoxy]-6-(2-mercaptoethyl)-benzoic acid]: 4 nM; `O=C(O)c1cccc(CC(CNO)C(=O)O)c1` (centres unmarked) [3-(2-Carboxy-3-hydroxyamino-propyl)-benzoic acid]: 44000 nM.
Still for that read-out and setting: next, `COC(=O)c1cccc(-c2cccc(OCC(=O)NO)c2C(=O)OC)c1` [3-Hydroxycarbamoylmethoxy-biphenyl-2,3′-dicarboxylic acid dimethyl ester]: no less than 100000 nM; `COC(=O)c1cccc(CC(C(=O)O)C(=O)NO)c1` (centres unmarked) [3-(2-Carboxy-2-hydroxycarbamoyl-ethyl)-benzoic acid methyl ester]: no less than 100000 nM.
Still for that read-out and setting: next, `O=C(NCc1ccccc1)c1cccc(CC(CCCS)C(=O)O)c1` (stereo not drawn) [alpha-(3-mercaptopropyl)-3-[[(phenylmethyl)amino]carbonyl]-benzenepropanoic acid]: 1130 nM.
As to `O=C(O)c1cccc(CC(CCCS)C(=O)O)c1-c1ccccc1` (centres unmarked) [6-(2-carboxy-5-mercaptopentyl)-[1,1′-biphenyl]-2-carboxylic acid], the IC50 was 70 nM.
Regarding `O=C(O)c1ccc([N+](=O)[O-])c(CC(CCCS)C(=O)O)c1` (stereo not drawn) [5-carboxy-alpha-(3-mercaptopropyl)-2-nitro-benzenepropanoic acid], the half-inhibitory concentration (IC50) is 8.25 nM.
The same measure, in the same setting: next, `O=C(CSCCc1cccc(-c2cccc(C(=O)O)c2)c1C(=O)O)NO` [3-(2-1-Hydroxycarbamoyl-methylsulfanyl-ethyl)-biphenyl-2,3′-dicarboxylic acid]: 255 nM.
For `O=C(O)c1ccc(CC(CCCS)C(=O)O)c2ccccc12` (stereo not drawn) [4-carboxy-alpha-(3-mercaptopropyl)-1-naphthalenepropanoic acid], the IC50 is 316 nM.
Consider `O=C(CSCCc1cccc(OCc2ccc(C(=O)O)cc2)c1C(=O)O)NO`, for which the half-maximal inhibitory concentration (IC50) came to 14000 nM.
Same read-out and setting: next, `COc1cc(COc2cccc(CCS)c2C(=O)O)ccc1C(=O)O` [2-[(4-carboxy-3-methoxyphenyl)methoxy]-6-(2-mercaptoethyl)-benzoic acid]: 10.5 nM.
Still for that read-out and setting: next, `O=C(O)C(CCCS)Oc1ccccc1` (centres unmarked) [5-mercapto-2-phenoxy-pentanoic acid]: 555 nM; `O=C(O)c1ccc(Br)c(CC(CCCS)C(=O)O)c1` (stereo not drawn) [2-bromo-5-carboxy-alpha-(3-mercaptopropyl)-benzenepropanoic acid]: 3.33 nM.
In the case of `COC(=O)c1cc(CC(C(=O)O)C(=O)NO)cc(C(C)(C)C)c1` (centres unmarked) [3-tert-Butyl-5-(2-carboxy-2-hydroxycarbamoyl-ethyl)-benzoic acid methyl ester], the IC50 was 38600 nM.
On the same count and under the same terms, next, `O=C(O)c1ccc(OC(CCCS)C(=O)O)cc1` (centres unmarked) [4-(1-carboxy-4-mercaptobutoxy)-benzoic acid]: 192 nM; `O=C(O)C(CCCS)Cc1ccc(O)cc1` (stereo not drawn) [4-hydroxy-alpha-(3-mercaptopropyl)-benzenepropanoic acid]: 2140 nM; `O=C(O)c1cccc(-c2cccc(CC(CCCS)C(=O)O)c2)c1` (centres unmarked) [3′-(2-carboxy-5-mercaptopentyl)-[1,1′-biphenyl]-3-carboxylic acid]: 1.83 nM.
